Values after ≈ are worked out from the molar mass of the structure shown.
What was measured:
C. albicans [1] = assay: In vitro susceptibility MIC, EUCAST EDef7.1; format: cell-based, Candida albicans; conditions: for MIC: Candida albicans
Description: (§1) All fungal isolates were identified to the genus and species level using standard techniques. Briefly, each isolate was subcultured in CHROMagar Candida (Becton Dickinson and Company, Sparks, MD) and molecular identification by sequencing of the internal transcribed spacer region and/or 28S ribosomal subunit. In vitro susceptibility testing was performed on all fungal isolates collected during the study to calculate the minimum inhibitory concentrations (MICs) according to Clinical Laboratory Standards Institutes (CLSI) methodology (M27-A3) and European Committee on Antimicrobial Susceptibility Testing (EUCAST) methodology (EDef7.1).[24],[25]

[2] = Clinical laboratory test findings, safety analysis set; format: in vivo, infants; conditions: postbaseline increase from baseline
C. albicans [3] = assay: In vitro susceptibility MIC, CLSI M27-A3; format: cell-based; conditions: Candida albicans
Description: as §1

[4] = test system: Candida spp. (invasive candidiasis); assay: Phase 3 randomized double-blind study, efficacy in infants with proven invasive candidiasis (NCT00815516); format: in vivo
Description: This was a phase 3, randomized, double-blind, multicenter, parallel-group, noninferiority study (ClinicalTrials.gov identifier: […] The follow-up was performed to capture emergent and recurrent fungal infections, to obtain a final safety evaluation and to check for resolution of those IC episodes that had not resolved by the end of treatment. […] An independent Data Review Panel reviewed and confirmed the diagnosis of IC and evaluated the efficacy outcome for each subject. Drug safety was evaluated by an unblinded Data Safety and Monitoring Board. […] FFS was defined as an infant alive and fungal free with no requirement for continued treatment with alternative antifungal therapy. […] Responses were defined as follows: complete response (resolution of all attributable signs related to fungal infection); partial response (improvement in attributable signs related to the fungal infection); stabilization (minor improvement or no change in attributable signs related to the fungal infection and the infant continued on therapy without deterioration); progression (deterioration in attributable signs related to the fungal infection or death presumably related to fungal infection). […] Persistence was defined by continued isolation or histologic documentation from a normally sterile site. […] Following positive Candida cultures, end-organ dissemination was assessed using abdominal ultrasound and/or computed tomography scanning, echocardiogram, head imaging with ultrasound, magnetic resonance imaging or computed tomography scanning or ophthalmoscopy. An emergent fungal infection was defined as a non-Candida invasive fungal infection detected at any time during the study or any invasive fungal infection detected >96 hours postbaseline involving a Candida spp. other than those detected at baseline.

C. glabrata [5] = assay: In vitro susceptibility MIC, EUCAST EDef7.1; format: cell-based, Candida glabrata; conditions: Nakaseomyces glabratus; baseline isolate, persistent infection in AmB-D group
Description: as §1

[6] = Adverse events, safety analysis set
[7] = in vivo
C. glabrata [8] = assay: In vitro susceptibility MIC, CLSI M27-A3; format: cell-based, Candida glabrata; conditions: Nakaseomyces glabratus; baseline isolate, persistent infection in AmB-D group
Description: as §1

[9] = 216 h, follow-up cultures on day 9, AmB-D group infant
[10] = baseline isolate, persistent infection in AmB-D group
[11] = irrespective of relatedness to study drug
[12] = possible or probable, as assessed by the investigator

## C[C@@H]1[C@H](O)[C@@H](C)/C=C/C=C/C=C/C=C/C=C/C=C/C=C/[C@H](O[C@@H]2O[C@H](C)[C@@H](O)[C@H](N)[C@@H]2O)C[C@@H]2O[C@](O)(C[C@@H](O)C[C@@H](O)[C@H](O)CC[C@@H](O)C[C@@H](O)CC(=O)O[C@H]1C)C[C@H](O)[C@H]2C(=O)O [AmB-D, Amphotericin B deoxycholate]
C. albicans [1]; [9]
  MIC: 0.25 µg/mL (≈ 0.271 µM)
C. albicans [1]; [10]
  MIC: 0.5 µg/mL (≈ 0.541 µM)
C. albicans [1]; follow-up cultures on day 9, AmB-D group infant
  MIC, EUCAST: 0.5 µg/mL (≈ 0.541 µM)
[2]
  Serum creatinine increase >100%: 0 n/N (%)
C. albicans [3]; [9]
  MIC: 1 µg/mL (≈ 1.08 µM)
C. albicans [3]; [10]
  MIC: 1 µg/mL (≈ 1.08 µM)
[4]; MCA n = 20, AmB-D n = 10
  Early discontinuation of treatment: lack of efficacy: 1 (10%) n (%)
[4]; at 1 week after last dose of study drug, infants with signs at baseline
  Clinical response: Partial: 0 n/N (%)
[4]; at end of study and 1 week after last dose, infants with signs at baseline (MCA 18, AmB-D 10)
  Positive clinical response: 70%
[4]; did not meet primary efficacy end point, MCA n = 20, AmB-D n = 10
  Infants alive at 1 week after last dose but not fungal free: 2 (20%) n (%)
[4]; end of study (30 days after last dose)
  Clinical response: Partial: 0 n/N (%)
[4]; full analysis set
  Emergent fungal infections through end of study: 0 n/N (%)
C. glabrata [5]
  MIC: 0.5 µg/mL (≈ 0.541 µM)
[6]; MCA n = 20, AmB-D n = 10
  Early discontinuation of treatment: AEs: 3 (30%) n (%)
  Electrolyte supplementation received: 5 (50%) n (%)
[6]; MedDRA system organ class
  TEAEs: Blood and lymphatic system disorders: 6 (60) n (%)
  TEAEs: General disorders and administration site conditions: 5 (50) n (%)
  TEAEs: Investigations: 3 (30) n (%)
  TEAEs: Metabolism and nutrition disorders: 2 (20) n (%)
  TEAEs: Respiratory, thoracic and mediastinal disorders: 3 (30) n (%)
  TEAEs: Skin and subcutaneous tissue disorders: 2 (20) n (%)
  TEAEs: Vascular disorders: 3 (30) n (%)
[6]; all deaths reported from the study
  Deaths: 1 (10) n (%)
[6]; in vivo
  Magnesium supplementation: 2 (20%) n (%)
  Potassium supplementation: 3 (30%) n (%)
[6]; [11]
  TEAE anemia: 3 (30%) n (%)
  TEAE thrombocytopenia: 3 (30%) n (%)
[6]; [12]
  Drug-related TEAEs: 5 (50) n (%)
  Drug-related TEAEs leading to death: 0 n (%)
  Drug-related serious TEAEs: 1 (10) n (%)
[6]; safety analysis set
  Serious TEAEs: 7 (70) n (%)
[6]; safety analysis set, MCA N = 20 (10 mg/kg/d), AmB-D N = 10 (1 mg/kg/d)
  TEAEs: 9 (90) n (%)
[7]
  TEAEs: Infections and infestations: 3 (30) n (%)
C. glabrata [8]
  MIC: 1 µg/mL (≈ 1.08 µM)

Reference: paper PMC6155365, “A Phase 3 Study of Micafungin Versus Amphotericin B Deoxycholate in Infants With Invasive Candidiasis” (The Pediatric Infectious Disease Journal, 2018)
